Results as given in US12350267B2, “Bile acid recycling inhibitors for treatment of pediatric cholestatic liver diseases” (SHIRE HUMAN GENETIC THERAPIES, INC., priority 2011, dated 2025).

Key:
[1] = test system: fecal bile acid excretion and plasma bile acid concentrations; assay: ZDF rat study of 264W94: fecal bile acid excretion and plasma bile acid concentrations; type: in vivo, Male Zucker diabetic fatty rats (ZDF/GmiCrl-fa/fa); conditions: 2 weeks
Description: Animal preparation. Male Zucker diabetic fatty rats (ZDF/GmiCrl-fa/fa) were purchased from Charles River (Raleigh, NC) and housed under controlled conditions (12:12 light-dark cycle, 24° C. and 50% relative humidity) with free access to rodent food (Purina 5008, Harlan Teklad, Indianapolis, IN). All rats arrived at seven weeks of age (±3 days). After a one-week acclimation period, rats were anesthetized with isoflurane (Abbott Laboratories, IL) and tail-vein blood samples were collected at 9 am without fasting. Blood glucose levels were measured using a glucometer (Bayer, Leverkusen, Germany). In order to ensure balanced treatment groups, ZDF rats were assigned to six treatment groups based upon baseline glucose: vehicle (0.5% HPMC, 0.1% Tween80) and five doses of 264W94 (0.001, 0.01, 0.1, 1, 10 mg/kg). All treatments were given via oral gavage twice a day and animals were followed for two weeks with blood samples collected from tail vein at the end of each week at 9 am without fasting. Fecal samples were collected for 24 hours during the second week of treatment.
Measurement of clinical chemistry parameters. Non-esterified fatty acids (NEFA), bile acids, and bile acids in fecal extraction were measured using the Olympus AU640 clinical chemistry analyzer (Beckman Coulter, Irving, TX).

[2] = Pharmacokinetics of LUM001 in pediatric subjects (study NB-00-02-014); type: in vivo; conditions: measured on day eight
Description: LUM001 has been administered to forty patients under the age of 18 years old. […] The drug was administered once-a-day (QD) in the morning for fourteen days. […] These doses are similar to those using to treat children with cholestatic diseases.

[3] = test system: Postprandial Total Serum Bile Acids; conditions: dog; previous experiments (2); cited from earlier work
[4] = test system: Postprandial Total Serum Bile Acids; assay: Duration of action of LUM001 on dog serum bile acids, Method 2 (dosing before feeding); type: in vivo, Beagle dogs; conditions: dogs n=9, 0.05 mg/kg (2nd dose column), dosing time 0 hr, feeding time 2 hr
Description: (§1) Dosage preparation and administration: LUM001 was dissolved in water at concentrations that required the administration of 0.2 ml/kg of solution. Solutions were placed into gelatin capsules, Torpac Inc., size 13 Batch 594, East Hanover NJ, and administered orally.
(§2) Dogs: Male beagle dogs were obtained from Covance Research Products, Cumberland VA or Marshall Farms USA, Inc., North Rose NY. A total of 20 dogs, 1 to 5 years old, 6.8 to 15.6 kg body weight, were used in these experiments. The dogs were conditioned to a 12 hour light/dark cycle and maintained on a feeding restriction of 1 hour per day access to food (Richman Standard Certified Canine Diet #5007, PMI Nutrition, Inc., St Louis MO) from 7 to 8 AM. They were trained to eat a special meal promptly within 20 minutes when presented (1 can. 397 g, Evanger's 100% Beef for Dogs, Evanger's Dog and Cat Food Co., Inc., Wheeling IL, mixed with 50 g of sharp cheddar cheese).
Serum Total Bile Acid (SBA) Measurement: SBA was measured by an enzymatic assay. SBA values are expressed as μg of total bile acids/ml of serum.
Experiments to Measure the Duration of Action of LUM001: In dogs a single experimental meal produces a postprandial rise in SBA that is elevated to a peak at 1 hour after feeding and constant for an additional 3 hours. Previous experiments (2) indicate that LUM001 remains active for more than 4.5 hours. […]

[5] = test system: serum bile acids and fecal bile acids; assay: Phase 1 ascending multiple oral doses of LUM001 in healthy subjects: serum and fecal bile acids; type: in vivo; conditions: healthy adult subjects; multiple oral doses qAM, 28 days
Description: A Randomized, Double-Blind, Placebo Controlled, Safety, Tolerability, Pharmacokinetic, and Pharmacodynamic Study of Ascending Multiple Oral Doses of LUM001 in Healthy Subjects
This Phase 1 study was a randomized, double-blind, placebo-controlled study of ascending multiple oral doses of LUM001 in healthy, adult subjects. This study was conducted at a single center. There were 13 LUM001 dosing panels: 10, 20, 60, 100, and 20 mg every morning (qAM) (2) (i.e., the regimen was tested a second time in the study), 5 mg every evening (qPM), 0.5, 1, 2.5, 5, 2.5 (2), 5 (2), and 0.5 to 5 mg qAM dose titration. Most of the dosing panels included subjects treated with matching placebo. […]
SBA were analyzed as part of the routine clinical analysis of the serum samples collected at each time point.
Fecal Bile Acid Analysis: Fecal samples were collected for all panels except the dose-titration panel, 2.5 (2) and 5 mg (2), on Days 9 through 14 and 23 through 28 (data shown in FIG. 4). Twenty-four hour FBA excretions were quantified by Pharmacia for Days 9 through 14 and 23 through 28. […] The weight of each 24-hour fecal collection was recorded on the CRFs. […]
An aliquot for each 24-hour fecal sample collected on Days 23 through 28 was combined, homogenized, and analyzed for bile acid species concentrations by ANAPHARM. […]

[6] = test system: Postprandial Total Serum Bile Acids; assay: Time to onset of activity of LUM001 on postprandial serum bile acids in dogs; type: in vivo, Beagle dogs; conditions: dog; dose increased above ED50 level to 1 mg/kg
Description: Animal Study on the Duration of Action and Time to Onset of ASBTI Activity of a Single Oral Dose of LUM001 on Postprandial Total Serum Bile Acids in Beagle Dogs
Test Compound: LUM001—Form I
as §1, §2
Serum Total Bile Acid (SBA) Measurement: SBA was measured by an enzymatic assay. SBA values are expressed as μg of total bile acids/ml of serum. […]

plasma bile acid levels = assay: Plasma bile acid levels of ZDF rats after ascending doses of SC-435 and LUM002; type: in vivo, Male ZDF rats; conditions: ZDF rats n=4; oral gavage twice a day for 2 weeks; all doses (SC-435 1, 10 or 30 mg/kg; LUM002 0.3, 1, 3, 10 or 30 mg/kg)
Description: (§3) FIG. 2. Plasma bile acid levels of ZDF rats after administration of ascending doses of SC-435 and LUM002. Male ZDF rats (n=4) were administered vehicle, SC-435 (1, 10 or 30 mg/kg) or LUM002 (0.3, 1, 3, 10 or 30 mg/kg) by oral gavage twice a day for 2 weeks. Plasma bile acid levels were determined at the end of the second week. Data are expressed as mean values±SEM.
as §3, with “Plasma” for “FIG. 2. Plasma”, “week. […]” for “week.”

[7] = ZDF rats, oral gavage twice a day

## CCCC[C@]1(CC)CS(=O)(=O)c2cc(OC)c(OC)cc2[C@@H](c2ccccc2)N1 [Compound 264W94]
[1]; 0.001-10 mg/kg oral gavage twice a day, maximum elevation (up to)
  Fecal bile acid concentrations elevated compared to vehicle treated rats: up to 6.5 fold
[1]; ZDF rats, 0.001-10 mg/kg oral gavage twice a day
  Plasma bile acid concentrations: decreased dose-dependently
[1]; [7]
  ED50 for elevation of fecal bile acid concentrations: 0.17 mg/kg
  Fecal NEFA: slightly increased

## CCCCC1(CCCC)CS(=O)(=O)c2ccc(N(C)C)cc2[C@@H](c2ccc(OCc3ccc(C[N+]45CCN(CC4)CC5)cc3)cc2)[C@H]1O [LUM001]
[2]; Subject 0510, 5.0 mg QD (168.4 μg/kg)
  Average serum drug exposure: 0,0 ng/ml
[2]; patients under 18, QD in the morning
  Systemic exposure / absorption by the children: minimally absorbed
[3]
  Time LUM001 remains active (previous experiments): more than 4.5 hours
[4]
  Serum Bile Acid, Mean: 1.7 µg/mL
[5]
  Fecal bile acids: significant increase
  Serum bile acids: significant reduction
[6]
  Onset time to significant SBA lowering versus ED50 dose: did not shorten

## CCCC[C@]1(CC)CS(=O)(=O)c2ccc(N(C)C)cc2[C@@H](c2cccc(NC(=O)N[C@@H]3O[C@H](COS(=O)(=O)[O-])[C@@H](O)[C@H](OCc4ccccc4)[C@H]3O)c2)[C@H]1O.[K+] [LUM002]
Plasma bile acid levels
  Plasma bile acid levels: decreased

## CCCCC1(CCCC)CS(=O)(=O)c2ccc(N(C)C)cc2[C@@H](c2ccc(OCCCC[N+]34CCN(CC3)CC4)cc2)[C@H]1O.CS(=O)(=O)[O-] [SC-435, 1-[4-[4-[(4R,5R)-3,3-dibutyl-7-(dimethylamino)-2,3,4,5-tetrahydro-4-hydroxy-1,1-dioxido-1-benzothiepin-5-yl]phenoxy]butyl]4-aza-1-azoniabicyclo[2.2.2]octane methanesulfonate salt, reference compound]
Plasma bile acid levels
  Plasma bile acid levels: decreased
